ChEMBL document CHEMBL1201862, “PubChem BioAssay data set” (2004)
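Exposure lasted 48 hours, with cells grown in 96-well plates and compounds tested at five concentrations. Abbreviation: GI50, concentration required for 50% inhibition of growth.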 The source made the active and inactive calls. Cut-off read from the data, not from the text of the source: active = GI50 up to about 1.1 µM and inactive = higher.

Key:
Test in all cases: DTP human tumour cell line panel, 48 h
[1] = tested on: 786-0
[2] = tested on: A498
[3] = tested on: A549
[4] = tested on: ACHN
[5] = tested on: CAKI-1
[6] = tested on: CCRF-CEM
[7] = tested on: COLO 205
[8] = tested on: DLD-1
[9] = tested on: DMS-114
[10] = tested on: DMS-273
[11] = tested on: EKVX
[12] = tested on: HCC 2998
[13] = tested on: HCT-116
[14] = tested on: HCT-15
[15] = tested on: HL-60
[16] = tested on: HOP-18
[17] = tested on: HOP-62
[18] = tested on: HOP-92
[19] = tested on: HT-29
[20] = tested on: IGROV-1
[21] = tested on: K562
[22] = tested on: KM-20L2
[23] = tested on: KM12
[24] = tested on: LOX IMVI
[25] = tested on: LXFL 529
[26] = tested on: M14
[27] = tested on: M19-MEL
[28] = tested on: MOLT-4
[29] = tested on: Malme-3M
[30] = tested on: NCI-H23
[31] = tested on: NCI-H460
[32] = tested on: OVCAR-3
[33] = tested on: OVCAR-4
[34] = tested on: OVCAR-5
[35] = tested on: OVCAR-8
[36] = tested on: RXF 393
[37] = tested on: RXF 631
[38] = tested on: SF-268
[39] = tested on: SF-295
[40] = tested on: SF-539
[41] = tested on: SK-MEL-28
[42] = tested on: SK-MEL-2
[43] = tested on: SK-MEL-5
[44] = tested on: SK-OV-3
[45] = tested on: SN12C
[46] = tested on: SNB-19
[47] = tested on: SNB-75
[48] = tested on: SNB-78
[49] = tested on: SR
[50] = tested on: SW-620
[51] = tested on: TK-10
[52] = tested on: U-251
[53] = tested on: UACC-257
[54] = tested on: UACC-62
[55] = tested on: UO-31
[56] = tested on: XF498
[57] = tested on: BT-549
[58] = tested on: DU-145
[59] = tested on: MCF7
[60] = tested on: MDA-MB-231
[61] = tested on: NCI-H226
[62] = tested on: NCI-H522
[63] = tested on: NCI/ADR-RES
[64] = tested on: PC-3
[65] = tested on: RPMI-8226

Cc1nn(C(=O)CC(=O)Nc2ccccc2Cl)c(C)c1/N=N/c1ccccc1Cl
GI50 [1]: > 100 µM (inactive)
GI50 [2]: > 100 µM (inactive)
GI50 [3]: > 100 µM (inactive)
GI50 [4]: > 100 µM (inactive)
GI50 [5]: > 100 µM (inactive)
GI50 [6]: > 100 µM (inactive)
GI50 [7]: > 100 µM (inactive)
GI50 [8]: > 100 µM (inactive)
GI50 [9]: > 100 µM (inactive)
GI50 [10]: > 100 µM (inactive)
GI50 [11]: > 100 µM (inactive)
GI50 [12]: > 100 µM (inactive)
GI50 [13]: > 100 µM (inactive)
GI50 [14]: > 100 µM
GI50 [15]: > 100 µM (inactive)
GI50 [16]: > 100 µM (inactive)
GI50 [17]: > 100 µM (inactive)
GI50 [18]: > 100 µM (inactive)
GI50 [19]: > 100 µM (inactive)
GI50 [20]: > 100 µM (inactive)
GI50 [21]: > 100 µM (inactive)
GI50 [22]: > 100 µM (inactive)
GI50 [23]: > 100 µM (inactive)
GI50 [24]: > 100 µM (inactive)
GI50 [25]: > 100 µM (inactive)
GI50 [26]: > 100 µM (inactive)
GI50 [27]: > 100 µM (inactive)
GI50 [28]: > 100 µM (inactive)
GI50 [29]: > 100 µM (inactive)
GI50 [30]: > 100 µM (inactive)
GI50 [31]: > 100 µM (inactive)
GI50 [32]: > 100 µM (inactive)
GI50 [33]: > 100 µM (inactive)
GI50 [34]: > 100 µM (inactive)
GI50 [35]: > 100 µM (inactive)
GI50 [36]: > 100 µM (inactive)
GI50 [37]: > 100 µM (inactive)
GI50 [38]: 85.7 µM (inactive)
GI50 [39]: > 100 µM (inactive)
GI50 [40]: 80.9 µM (inactive)
GI50 [41]: > 100 µM (inactive)
GI50 [42]: > 100 µM (inactive)
GI50 [43]: > 100 µM (inactive)
GI50 [44]: > 100 µM (inactive)
GI50 [45]: > 100 µM (inactive)
GI50 [46]: > 100 µM (inactive)
GI50 [47]: 82 µM (inactive)
GI50 [48]: 40.9 µM (inactive)
GI50 [49]: > 100 µM (inactive)
GI50 [50]: > 100 µM (inactive)
GI50 [51]: > 100 µM (inactive)
GI50 [52]: > 100 µM (inactive)
GI50 [53]: > 100 µM (inactive)
GI50 [54]: > 100 µM (inactive)
GI50 [55]: > 100 µM (inactive)
GI50 [56]: > 100 µM (inactive)

COc1cc(C2c3cc4c(cc3[C@@H](Nc3ccc5c(c3)OCCO5)C3COC(=O)[C@H]23)OCO4)cc(OC)c1O (stereo partly specified)
GI50 [1]: 0.199 µM (active)
GI50 [2]: 0.19 µM (active)
GI50 [3]: 0.104 µM (active)
GI50 [4]: 0.585 µM (active)
GI50 [57]: 3.9 µM (inactive)
GI50 [5]: 0.113 µM (active)
GI50 [6]: 0.138 µM (active)
GI50 [7]: 0.918 µM (active)
GI50 [8]: 0.692 µM (active)
GI50 [9]: 0.303 µM (active)
GI50 [10]: 0.109 µM (active)
GI50 [58]: 0.743 µM (active)
GI50 [11]: 2.87 µM (inactive)
GI50 [12]: 1.1 µM (active)
GI50 [13]: 0.194 µM (active)
GI50 [14]: 1.25 µM
GI50 [15]: 0.105 µM (active)
GI50 [16]: 3.98 µM (inactive)
GI50 [17]: 0.22 µM (active)
GI50 [18]: 0.478 µM (active)
GI50 [19]: 0.555 µM (active)
GI50 [20]: 0.906 µM (active)
GI50 [21]: 0.413 µM (active)
GI50 [22]: 0.745 µM (active)
GI50 [23]: 1.85 µM (inactive)
GI50 [24]: 0.587 µM (active)
GI50 [25]: 3.44 µM (inactive)
GI50 [26]: 0.327 µM (active)
GI50 [27]: 0.622 µM (active)
GI50 [59]: 0.802 µM (active)
GI50 [60]: 16.4 µM (inactive)
GI50 [28]: 0.035 µM (active)
GI50 [29]: 1.6 µM (inactive)
GI50 [61]: 0.295 µM (active)
GI50 [30]: 0.207 µM (active)
GI50 [31]: 0.0156 µM (active)
GI50 [62]: 0.301 µM (active)
GI50 [63]: 1.07 µM (active)
GI50 [32]: 0.959 µM (active)
GI50 [33]: 5.97 µM (inactive)
GI50 [34]: 2.22 µM (inactive)
GI50 [35]: 0.693 µM (active)
GI50 [64]: 0.918 µM (active)
GI50 [65]: 0.532 µM (active)
GI50 [36]: 0.453 µM (active)
GI50 [37]: 0.273 µM (active)
GI50 [38]: 0.771 µM (active)
GI50 [39]: 0.301 µM (active)
GI50 [40]: 0.435 µM (active)
GI50 [41]: 2.05 µM (inactive)
GI50 [42]: 2.19 µM (inactive)
GI50 [43]: 0.448 µM (active)
GI50 [44]: 1.58 µM (inactive)
GI50 [45]: 0.627 µM (active)
GI50 [46]: 1.04 µM (active)
GI50 [47]: 0.581 µM (active)
GI50 [48]: 1.84 µM (inactive)
GI50 [49]: < 0.0364 µM (active)
GI50 [50]: 0.586 µM (active)
GI50 [51]: 1.52 µM (inactive)
GI50 [52]: 0.516 µM (active)
GI50 [53]: 2.57 µM (inactive)
GI50 [54]: 0.257 µM (active)
GI50 [55]: 0.499 µM (active)
GI50 [56]: 0.525 µM (active)
